This experiment in a line: Inhibition of GSK3.

The IC50 is the concentration that gives 50% inhibition. A low value points to greater potency.

On to `O=C1Nc2ccc(Br)cc2/C1=C1/Nc2ccccc2/C1=N\O` [INDIRUBIN 2], for which inhibition was half-maximal at 5 nM (IC50).

The compound `CN1CCN(c2cnc(NCCNc3ccc([N+](=O)[O-])c(N)n3)nc2-c2ccc(Cl)cc2Cl)C(=O)C1` came in with an IC50 of 4 nM.

The compound `COc1ccc(Nc2nccc(-c3cnn4ncccc34)n2)cc1OC` [PYRAZOLOPYRIDAZINE 2] came in with an IC50 of 12 nM.

For the compound `O=C1NC(=O)C(c2cnc3cccnn23)=C1c1cn2c3c(cccc13)CN(C(=O)N1CCCCC1)CC2` [BISARYLMALEIMIDE 1], 0.7 nM corresponded to half-maximal inhibition (IC50).

`CC(=O)O/N=C1/C(=C2/C(=O)Nc3cc(Cl)c(Cl)cc32)Nc2ccccc21` [INDIRUBIN 1] showed an IC50 of 4 nM.

In the case of `O=C1NC(=O)C(c2cncc3ccoc23)=C1c1cn2c3c(cccc13)CN(C(=O)N1CCOCC1)CC2` [BISARYLMALEIMIDE 2], the IC50 stood at 0.8 nM.

In turn, `O=C1NC(=O)C2=C1c1cn(c3ccccc13)CCOCCOCCOCCn1cc2c2cccnc21` [INDOLYLYLMALEIMIDE 1] yielded an IC50 of 17 nM.

Turning to `COc1cccc(-n2ncc3c(N/N=C/c4ccc(S(C)(=O)=O)cc4)ncnc32)c1` [PYRAZOLOPYRIMIDINE 2], the “Log IC50” value is -8.6.

As for `CN(C)CCCn1cc(C2=C(c3c[nH]c4ccccc34)C(=O)NC2=O)c2ccccc21` [GF-109203], inhibition was half-maximal at 190 nM (IC50).

For `CN(C)CCNC(=O)c1ccc(/C=N/Nc2ncnc3c2cnn3-c2cccc3[nH]cnc23)cc1` [PYRAZOLOPYRIMIDINE 1], the “Log IC50” value is reported as -8.8.

`O=C1NC(=O)C2=C1c1cn(c3ccccc13)CCOCCOCCOCCn1cc2c2ccccc21` [INDOLYLYLMALEIMIDE 2] gave an IC50 of 22 nM.

Turning to `CC(=O)NC1=NC(=O)/C(=C2\CCNC(=O)c3c2cc(Br)n3C(C)=O)N1` [HYMENIALDISINE 2], the IC50 is 130 nM.

For `COc1cccc(Nc2nccc(-c3cnn4ncccc34)n2)c1` [PYRAZOLOPYRIDAZINE 1], the IC50 was found to be 10 nM.

The values above are taken from ChEMBL document CHEMBL1140622, “Structure based de novo design of novel glycogen synthase kinase 3 inhibitors” (Bioorg Med Chem, 2007).
